4 compounds from ChEMBL document CHEMBL1201862, “PubChem BioAssay data set” (2004) can be followed below.

Among the test systems are M14; UACC-257; NCI-H522; MDA-MB-435; EKVX; MOLT-4; OVCAR-3; BT-549; IGROV-1; NCI-H226; NCI-H460; SK-OV-3; HCT-116; UACC-62; SF-268; T47D; ACHN; UO-31; 786-0.
What all share (assay): NCI-60 cell line screen, 48 h

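Five concentrations, 48 hours, 96-well plates. GI50 = concentration required for 50% inhibition of growth.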 The source made the active and inactive calls. Rule as the data show it: active = GI50 up to about 1.1 µM and inactive = higher.

Consider `CCN(CC)CCNc1ccc2nnn3c4ccc(OC(C)=O)cc4c(=O)c1c23`, for which the GI50 in the assay with M14 is 6.64 µM (inactive); in the assay on UACC-257, 9.84 µM (inactive); with NCI-H522, 0.628 µM (active); with MDA-MB-435, 5.15 µM (inactive); with EKVX, 5.56 µM (inactive); in the assay on MOLT-4 it was 0.284 µM (active). Further, the GI50 with OVCAR-3 is 7.96 µM (inactive); in the assay on BT-549 it was 13.4 µM (inactive); in the assay on IGROV-1 it was 0.224 µM (active); with NCI-H226, 0.615 µM (active); with NCI-H460, 0.243 µM (active); with SK-OV-3, 7.35 µM (inactive). Also, the GI50 in the assay on HCT-116 is 3.46 µM (inactive); in the assay on UACC-62 it was 11.4 µM (inactive); with SF-268 it was 3.01 µM (inactive); in the assay on T47D it was 15.8 µM (inactive); in the assay on ACHN it was 1.02 µM (active); in the assay with UO-31, 1.63 µM (inactive).
On to `O=S(=O)(O)c1cc(O)c2c(O)c(/N=N/c3cccc4ccccc34)c(S(=O)(=O)O)cc2c1`, for which the GI50 in the assay on 786-0, in the assay on M14, with UACC-257, with NCI-H522, with MDA-MB-435 and with EKVX was > 100 µM (inactive) each time. The GI50 in the assay with MOLT-4, with OVCAR-3, in the assay with BT-549, in the assay on IGROV-1, in the assay on NCI-H226 and in the assay with SK-OV-3 was > 100 µM (inactive) throughout. Further, the GI50 with HCT-116, in the assay with UACC-62, with SF-268, in the assay with T47D, in the assay with ACHN and in the assay with UO-31 was > 100 µM (inactive) throughout.
As to `FC(F)(F)C1(C(F)(F)F)OC(Cl)(Cl)C(Cl)(Cl)O1`, the GI50 with 786-0, with M14, in the assay on UACC-257, in the assay with NCI-H522, with MDA-MB-435 and in the assay on EKVX was > 10 µM (inactive) throughout. Further, the GI50 in the assay on OVCAR-3, in the assay on BT-549, in the assay on IGROV-1, in the assay on NCI-H226, with NCI-H460 and in the assay on SK-OV-3 was > 10 µM (inactive) each time. In addition, the GI50 with HCT-116, in the assay on UACC-62, with SF-268, in the assay with T47D and with ACHN was > 10 µM (inactive) in each case.
Regarding `O=c1c2ccc(S(=O)(=O)c3ccc4c(=O)n5c6ccccc6nc5c5cccc3c45)c3cccc(c32)c2nc3ccccc3n12`, the GI50 in the assay on 786-0 was 29.5 µM (inactive); with M14, > 100 µM (inactive); with UACC-257 it was > 100 µM (inactive); with NCI-H522, 27.7 µM (inactive); in the assay with MDA-MB-435 it was > 100 µM (inactive); in the assay with EKVX, 43.9 µM (inactive). The GI50 in the assay with OVCAR-3 is > 100 µM (inactive); with BT-549, 20 µM (inactive); in the assay with IGROV-1 it was 1.98 µM (inactive); in the assay on NCI-H226 it was 41.6 µM (inactive); in the assay with NCI-H460, > 100 µM (inactive); in the assay on SK-OV-3, 5.26 µM (inactive). Besides, the GI50 in the assay on HCT-116 is > 100 µM (inactive); in the assay with UACC-62, 45.5 µM (inactive); in the assay with SF-268, 33.5 µM (inactive); in the assay on T47D it was 36.6 µM (inactive); in the assay with ACHN it was 15.2 µM (inactive); with UO-31, 39.9 µM (inactive).
